Common to all, as to type: cell-based
Assay [1] deals with Pyricularia oryzae. In words: microbe, parasite or virus in culture. Conditions: 168 h, read-out: % control compared to the untreated check (radial growth).
Assay [2] concerns Rhizoctonia solani. In words: Rhizoctonia solani (rice sheath blight/potato black scurf) in vitro test, radial growth on Potato Dextrose Agar. The note with it: 168 h, 300 ppm, seven days, 25° C., read-out: % control compared to the untreated check (radial growth).
Assay [3] deals with Botrytis cinerea. Briefly: Botrytis cinerea (gray mold) in vitro test, radial growth on Potato Dextrose Agar. The note with it: 168 h, 300 ppm, seven days, 22° C., read-out: % (control) compared to the untreated check (radial growth).
In assay [4] the test system is Alternaria solani. Briefly: Alternaria solani (early blight of tomato/potato) in vitro test, radial growth on Potato Dextrose Agar. Conditions: 168 h, 300 ppm, seven days, 25° C., read-out: % control compared to the untreated check (radial growth).
For assay [5], the system named is Colletotrichum capsici. Briefly: Colletotrichum capsici (anthracnose) in vitro test, radial growth on Potato Dextrose Agar. The note with it: Colletotrichum truncatum, 168 h; 300 ppm; seven days, 25° C.; read-out: % control compared to the untreated check (radial growth).
The subject of assay [6] is Septoria lycopersici. In words: Septoria lycopersici (leaf spot of tomato) in vitro test, radial growth on Potato Dextrose Agar. The note with it: 168 h, seven days, 25° C., read-out: % control compared to the untreated check (radial growth).
The subject of assay [7] is Fusarium culmorum. Briefly: Fusarium culmorum (foot rot of cereals) in vitro test, radial growth on Potato Dextrose Agar. Conditions: Fusarium culmorum, 168 h, read-out: % control compared to the untreated check (radial growth).

Take `Cc1cc(N=CN2CCCCC2)c(C)cc1Cc1ccc(F)cc1` [Compound 60, N-(4-(4-fluorobenzyl)-2,5-dimethylphenyl)-1-(piperidin-1-yl)methanimine]: the inhibition of growth at 300 ppm in assay [1] was more than 75%; in assay [2], more than 80%; in assay [3], more than 80%; in assay [4] it was more than 75%; in assay [5] it was more than 80%; in assay [6], more than 70%. In addition, the inhibition of growth at 300 ppm in assay [7] worked out at 75%.
As to `CCN(C)C=Nc1cc(F)c(Cc2cccc(C)c2)cc1C` [Compound 171, N-ethyl-N′-(5-fluoro-2-methyl-4-(3-methylbenzyl)phenyl)-N-methylformimidamide], the inhibition of growth at 300 ppm in assay [1] was more than 75%; in assay [2] it was more than 80%; in assay [3], more than 80%; in assay [4], more than 75%; in assay [5], more than 80%; in assay [6], more than 70%. In addition, in assay [7], the inhibition of growth at 300 ppm amounted to 75%.
Turning to `CCN(C)C=Nc1cc(C)c(Cc2cccc(OC)c2)cc1Cl` [Compound 70, N′-(2-chloro-4-(3-methoxybenzyl)-5-methylphenyl)-N-ethyl-N-methylformimidamide], the inhibition of growth at 300 ppm in assay [1] is more than 75%; in assay [2], more than 80%; in assay [3] it was more than 80%; in assay [4], more than 75%; in assay [5] it was more than 80%; in assay [6], more than 70%. Also, the inhibition of growth at 300 ppm in assay [7] was determined as 75%.
For the molecule `CCN(C)C=Nc1cc(C)c(Cc2ccc(C)c(C)c2)cc1C` [Compound 113, N′-(4-(3,4-dimethylbenzyl)-2,5-dimethylphenyl)-N-ethyl-N-methylformimidamide], the inhibition of growth at 300 ppm in assay [1] was more than 75%; in assay [2] it was more than 80%; in assay [3] it was more than 80%; in assay [4], more than 75%; in assay [5], more than 80%; in assay [6], more than 70%. Moreover, the inhibition of growth at 300 ppm in assay [7] stood at 75%.
Regarding `CCN(C)C=Nc1cc(Cl)c(Cc2ccc(C)cc2)cc1C` [Compound 261, N′-(5-chloro-2-methyl-4-(4-methylbenzyl)phenyl)-N-ethyl-N-methylformimidamide], the inhibition of growth at 300 ppm is more than 75% in assay [1]; more than 80% in assay [2]; more than 80% in assay [3]; more than 75% in assay [4]; more than 80% in assay [5]; more than 70% in assay [6]. Moreover, the inhibition of growth at 300 ppm in assay [7] is 75%.
Consider `CCN(C)C=Nc1cc(C)c(Cc2cc(F)cc(C(F)(F)F)c2)cc1C` [Compound 52, N-ethyl-N′-(4-(3-fluoro-5-(trifluoromethyl)benzyl)-2,5-dimethylphenyl)-N-methylformimidamide], for which the inhibition of growth at 300 ppm in assay [1] was more than 75%; in assay [2], more than 80%; in assay [3], more than 80%; in assay [4], more than 75%; in assay [5], more than 80%; in assay [6], more than 70%. For the same molecule, in assay [7], the inhibition of growth at 300 ppm was 75%.
As for `CCN(C)C=Nc1cc(C)c(Cc2cccc(Cl)c2)cc1F` [Compound 208, N′-(4-(3-chlorobenzyl)-2-fluoro-5-methylphenyl)-N-ethyl-N-methylformimidamide], the inhibition of growth at 300 ppm is more than 75% in assay [1]; more than 80% in assay [2]; more than 80% in assay [3]; more than 75% in assay [4]; more than 80% in assay [5]; more than 70% in assay [6]. The inhibition of growth at 300 ppm in assay [7] stood at 75%.
Consider `CCN(C)C=Nc1cc(C)c(Cc2cccc(Cl)c2)cc1C1CC1` [Compound 199, N′-(4-(3-chlorobenzyl)-2-cyclopropyl-5-methylphenyl)-N-ethyl-N-methylformimidamide], for which the inhibition of growth at 300 ppm in assay [1] was more than 75%; in assay [2], more than 80%; in assay [3] it was more than 80%; in assay [4], more than 75%; in assay [5], more than 80%; in assay [6] it was more than 70%. Moreover, the inhibition of growth at 300 ppm in assay [7] was found to be 75%.
For the molecule `Cc1cc(N=CNC(C)C)c(C)cc1Cc1ccccc1F` [Compound 66, N′-(4-(2-fluorobenzyl)-2,5-dimethylphenyl)-N-isopropylformimidamide], the inhibition of growth at 300 ppm in assay [1] is more than 75%; in assay [2] it was more than 80%; in assay [3] it was more than 80%; in assay [4], more than 75%; in assay [5] it was more than 80%; in assay [6] it was more than 70%. Further, the inhibition of growth at 300 ppm in assay [7] was 75%.
For the molecule `Cc1cc(N=CN2CCCCC2)c(C)cc1Cc1ccccc1F` [Compound 58, N-(4-(2-fluorobenzyl)-2,5-dimethylphenyl)-1-(piperidin-1-yl)methanimine], the inhibition of growth at 300 ppm is more than 75% in assay [1]; more than 80% in assay [2]; more than 80% in assay [3]; more than 75% in assay [4]; more than 80% in assay [5]; more than 70% in assay [6]. The inhibition of growth at 300 ppm in assay [7] worked out at 75%.
On to `CCN(C)C=Nc1cc(C)c(Cc2ccccc2F)cc1C1CC1` [Compound 221, N′-(2-cyclopropyl-4-(2-fluorobenzyl)-5-methylphenyl)-N-ethyl-N-methylformimidamide], for which the inhibition of growth at 300 ppm is more than 75% in assay [1]; more than 80% in assay [2]; more than 80% in assay [3]; more than 75% in assay [4]; more than 80% in assay [5]; more than 70% in assay [6]. Also, in assay [7], the inhibition of growth at 300 ppm was found to be 75%.
Turning to `CCN(C)C=Nc1cc(C)c(Cc2cc(F)ccc2C)cc1Cl` [Compound 165, N′-(2-chloro-4-(5-fluoro-2-methylbenzyl)-5-methylphenyl)-N-ethyl-N-methylformimidamide], the inhibition of growth at 300 ppm in assay [1] is more than 75%; in assay [2] it was more than 80%; in assay [3], more than 80%; in assay [4], more than 75%; in assay [5], more than 80%; in assay [6], more than 70%. Also, in assay [7], the inhibition of growth at 300 ppm stood at 75%.
As to `CCN(C)C=Nc1cc(C)c(Cc2ccc(C)c(F)c2)cc1C` [Compound 144, N-ethyl-N′-(4-(3-fluoro-4-methylbenzyl)-2,5-dimethylphenyl)-N-methylformimidamide], the inhibition of growth at 300 ppm was more than 75% in assay [1]; more than 80% in assay [2]; more than 80% in assay [3]; more than 75% in assay [4]; more than 80% in assay [5]; more than 70% in assay [6]. Moreover, the inhibition of growth at 300 ppm in assay [7] was 75%.
For `CCN(C)C=Nc1cc(C#N)c(Cc2cccc(Cl)c2)cc1C` [Compound 249, N′-(4-(3-chlorobenzyl)-5-cyano-2-methylphenyl)-N-ethyl-N-methylformimidamide], the inhibition of growth at 300 ppm was more than 75% in assay [1]; more than 80% in assay [2]; more than 80% in assay [3]; more than 75% in assay [4]; more than 80% in assay [5]; more than 70% in assay [6]. For the same molecule, the inhibition of growth at 300 ppm in assay [7] was found to be 75%.
For the molecule `CCN(C)C=Nc1cc(C)c(Cc2cccc(Cl)c2F)cc1C` [Compound 118, N′-(4-(3-chloro-2-fluorobenzyl)-2,5-dimethylphenyl)-N-ethyl-N-methylformimidamide], the inhibition of growth at 300 ppm is more than 75% in assay [1]; more than 80% in assay [2]; more than 80% in assay [3]; more than 75% in assay [4]; more than 80% in assay [5]; more than 70% in assay [6]. Also, the inhibition of growth at 300 ppm in assay [7] was determined as 75%.
As to `CCN(C)C=Nc1cc(C)c(Cc2cc(C)cc(C)c2)cc1C` [Compound 114, N′-(4-(3,5-dimethylbenzyl)-2,5-dimethylphenyl)-N-ethyl-N-methylformimidamide], the inhibition of growth at 300 ppm was more than 75% in assay [1]; more than 80% in assay [2]; more than 80% in assay [3]; more than 75% in assay [4]; more than 80% in assay [5]; more than 70% in assay [6]. Besides, the inhibition of growth at 300 ppm in assay [7] was 75%.
For `CCN(C)C=Nc1cc(C)c(Cc2cccc(C#N)c2)cc1C` [Compound 47, N′-(4-(3-cyanobenzyl)-2,5-dimethylphenyl)-N-ethyl-N-methylformimidamide], the inhibition of growth at 300 ppm was more than 75% in assay [1]; more than 80% in assay [2]; more than 80% in assay [3]; more than 75% in assay [4]; more than 80% in assay [5]; more than 70% in assay [6]. The inhibition of growth at 300 ppm in assay [7] was found to be 75%.

(Values after patent US11155517B2, “4-substituted phenylamine derivatives and their use to protect crops by fighting undesired phytopathogenic micoorganisms” (PI INDUSTRIES LTD., priority 2016, dated 2021).)
